The values below come from PMC10349072, “Distinct evolution of type I glutamine synthetase in Plasmodium and its species-specific requirement” (Nature Communications, 2023).

SMILES strings stand for the structures.

The target in assay [1] is T1, E. coli glutamine synthetase (rE. coli GS) (Escherichia coli, UniProt P0A9C5).
T1 construct: gene glnA; recombinant with 6xHis tag
T1 sequence (P0A9C5 2-469): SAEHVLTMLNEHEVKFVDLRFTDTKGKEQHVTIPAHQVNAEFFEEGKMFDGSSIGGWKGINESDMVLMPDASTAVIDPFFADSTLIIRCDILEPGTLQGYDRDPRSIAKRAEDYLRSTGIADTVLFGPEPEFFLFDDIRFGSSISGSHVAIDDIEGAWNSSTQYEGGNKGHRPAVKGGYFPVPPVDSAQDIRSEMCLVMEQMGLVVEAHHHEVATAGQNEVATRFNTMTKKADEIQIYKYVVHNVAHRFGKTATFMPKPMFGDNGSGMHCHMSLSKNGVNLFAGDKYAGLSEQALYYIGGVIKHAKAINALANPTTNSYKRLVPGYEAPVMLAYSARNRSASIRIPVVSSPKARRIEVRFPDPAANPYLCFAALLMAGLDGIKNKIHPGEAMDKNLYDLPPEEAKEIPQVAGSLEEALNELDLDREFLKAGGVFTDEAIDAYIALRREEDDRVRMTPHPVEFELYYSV
The experiment in a line: feedback inhibition enzyme assay at […]. The class given is biochemical.

In assay [2] the target is T2, Plasmodium falciparum glutamine synthetase (rPfGS) (Plasmodium falciparum, UniProt C0H551).
T2 construct: gene PF3D7_0922600
T2 sequence (C0H551 1-543): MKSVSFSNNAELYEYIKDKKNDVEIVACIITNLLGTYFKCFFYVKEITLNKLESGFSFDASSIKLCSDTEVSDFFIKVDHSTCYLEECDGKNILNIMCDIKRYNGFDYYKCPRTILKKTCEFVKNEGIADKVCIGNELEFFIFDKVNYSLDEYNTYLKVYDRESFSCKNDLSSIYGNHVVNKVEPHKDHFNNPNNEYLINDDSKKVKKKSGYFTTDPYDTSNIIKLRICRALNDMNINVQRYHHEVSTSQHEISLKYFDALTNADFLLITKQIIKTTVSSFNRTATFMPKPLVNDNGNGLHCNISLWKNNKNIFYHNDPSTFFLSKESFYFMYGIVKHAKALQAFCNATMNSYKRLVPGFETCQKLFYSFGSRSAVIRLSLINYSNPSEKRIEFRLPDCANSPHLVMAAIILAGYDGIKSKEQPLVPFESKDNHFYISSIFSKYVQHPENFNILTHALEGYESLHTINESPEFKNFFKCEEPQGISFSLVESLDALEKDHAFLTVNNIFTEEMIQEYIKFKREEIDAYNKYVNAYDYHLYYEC
In words: biochemical.

Assay [3] concerns the target T3, Plasmodium falciparum glutamine synthetase lacking first peptide insert (ΔI1rPfGS) (Plasmodium falciparum, UniProt C0H551, DEL174-196).
T3 construct: gene PF3D7_0922600; recombinant, 6xHis tag, first peptide insert (amino acids 174–196) deleted
The class given is biochemical.

Assay [4] deals with T4, Plasmodium berghei glutamine synthetase (rPbGS) (Plasmodium berghei, UniProt A0A509ANX1).
T4 construct: gene PBANKA_0823500; recombinant with N-terminal 6xHis tag, expressed in E. coli
T4 sequence (A0A509ANX1 1-553): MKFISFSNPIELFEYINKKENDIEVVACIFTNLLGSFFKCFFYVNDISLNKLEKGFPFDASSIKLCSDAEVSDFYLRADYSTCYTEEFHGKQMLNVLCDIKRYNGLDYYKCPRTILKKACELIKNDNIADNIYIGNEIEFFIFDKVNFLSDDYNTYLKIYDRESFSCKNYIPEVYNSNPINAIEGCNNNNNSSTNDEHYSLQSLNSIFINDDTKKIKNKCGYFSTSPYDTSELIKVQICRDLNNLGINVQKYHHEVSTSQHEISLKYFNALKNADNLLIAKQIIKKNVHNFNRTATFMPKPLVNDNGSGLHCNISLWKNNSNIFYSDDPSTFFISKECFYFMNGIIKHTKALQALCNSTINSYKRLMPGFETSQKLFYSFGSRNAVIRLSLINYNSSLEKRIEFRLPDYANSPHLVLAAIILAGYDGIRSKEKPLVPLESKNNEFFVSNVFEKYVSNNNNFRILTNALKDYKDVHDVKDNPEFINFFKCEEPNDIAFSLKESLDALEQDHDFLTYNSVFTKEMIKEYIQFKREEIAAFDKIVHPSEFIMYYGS
The experiment in a line: GS enzyme assay (Pi release/HPLC) with pre-incubation with ATP and MgCl2; kinetic Ki. In kind it is biochemical.

For the molecule `Nc1ncnc2c1ncn2[C@@H]1O[C@H](COP(=O)(O)O)[C@@H](O)[C@H]1O` [AMP, adenosine monophosphate], the “%” value in assay [1] is 30–40% inhibition at 5 mM.
With `CP(=O)(O)CC[C@H](N)C(=O)O` [PPT, Phosphinothricin], the Ki in assay [2] turned out to be 2.31 ± 1.1 µM; in assay [4] it was 8.07 ± 3.31 µM. For the same molecule, the “GS enzyme assay, percent activity vs control” value in assay [3] was “ΔI1rPfGS behaved like rPfGS in terms of specific activity (Fig. 3b), inhibition by MSO and PPT (Fig. 3c)”.
Turning to `CS(=N)(=O)CC[C@H](N)C(=O)O` (stereo partly drawn) [MSO, L-Methionine sulfoximine], in assay [3], the “GS enzyme assay, percent activity vs control” value was “ΔI1rPfGS behaved like rPfGS in terms of specific activity (Fig. 3b), inhibition by MSO and PPT (Fig. 3c)”. Further, the Ki in assay [4] was 5.44 ± 1.07 µM.
`C[C@H](N)C(=O)O` [alanine]: in assay [1], the “%” value is 30–40% inhibition at 5 mM.
